Experimental data published in EP1690525B1, “Gamma-polyglutamate hydrogels for use as super moisturizers in cosmetic and personal care products” (Tung Hai Biotechnology Corporation, priority 2005, dated 2006).
Values belong to the molecule of their own block, whether it stands above or below them.

Assays:
[1] = tested on: outside skin surface of the arm of a test panelist; assay: Moisture retention of the skin after peeling off facial moisture mask (capacitance, Skin Analysis SHP88); format: in vivo, human; conditions: 5.0% in facial moisture mask; mask film peeled off after 15 minutes; 23°C, RH 65%
[2] = tested on: outside surface of the upper arm skin of a test panelist; assay: Skin irritation patch test, Draize method; format: in vivo, human; conditions: 5.0% in facial moisture mask; patched 24 hours
Text: The small molecular weight γ-polyglutamate in […] with 200,000 to 400,000 daltons (designated as LM), high molecular weight γ-polyglutamate in Ca^++ form with 1.15x10^6 to 1.35x10^6 daltons (designated as HM), and γ-polyglutamate hydrogel (prepared from γ-polyglutamate in Na^+ form) with molecular weight from 15x10^6 to 100x10^6 or higher (cross-linked with gamma ray irradiation) were used as super moisturizers. The species and proportions of the ingredients contained in the exemplified facial moisture mask formulation are listed in Table 5. Table 5. Facial Moisture Mask Formulation
The moisture mask samples of 25 cm^2 were taken from experimental example 4 and patched evenly on the outside surface of the upper arm skin of a test panelist. A group of 10 panelists participated in this test. After 24 hours, then the mask samples were removed and the skin was observed carefully for any degree of irritation, and the results were recorded according to Draize method (see Appraisel of the Safety of Chemicals in Food, Drugs and Cosmetics. Pharmacolo. 93:377-392, 1948, Draize, F. et al.). Table 6. The film formation time, capacity increase ratio (%), the pH value of the skin, and the Draize score after applying facial moisture masks

Pig skin [3] = assay: Ex-vivo pig skin: skin moisture retention by corneometry; conditions: 6.5% in skin moisture cream, 23°C and RH 60%
Method: Table 9. Skin moisture cream formulation.
Pig skin was used for this experiment. The skin moisture was measured at 23 °C under an environment of relative humidity (RH) of 60% with a probe of corneometer HM99 of Courage^+Khazaka Electronic Gmbh, Germany.

Pig skin [4] = assay: Ex-vivo pig skin: Trans-Epidermal-Water-Loss (TEWL); parameters: unit not given here; conditions: 6.5% in skin moisture cream
tyrosinase = assay: Inhibition of tyrosinase activity (absorbency at 475 nm); format: biochemical; conditions: 1.0% sample
Text: Although the formation of black pigment melanin on skin is complicated, it is generally realized that tyrosine is oxidized to DOPA (Dihydroxy Phenyalanine) by the catalysis of tyrosinase from melansome of melanocyte. The DOPA is further oxidized and finally converted into colored melanin-protein complex. The small molecular weight γ-polyglutamate in Na^+ form with 200,000 to 350,000 daltons (designated as LM) and high molecular weight γ-polyglutamate in Na^+ form with 1.15x10^6 to 1.35x10^6 daltons (designated as HM) were used in this experiment to determine the effectiveness in inhibiting the tyrosinase activity. • a. […] Sample of the reaction solution is then taken for measuring the absorbency at 475 nm, and recorded as At. • b. Determination of the blank absorbance of tyrosinase solutuion: • Replace 0.1 ml of buffer solution with tyrosinase solution, and repeat the same procedure in item (a), and record the absorbency at 475 nm as A1. • c. Replace 1 ml sample solution with buffer solution, and repeat the same procedure in item (a), and record the absorbance at 475 nm as Ab. • d. Determination of total blank absorbance of test solution: • Replace 1 ml sample solution with buffer solution, and 0.1 ml of tyrosinase solution with buffer solution, and repeat the procedure in item (a), and record the absorbency at 475 nm as Ao. • e. […]

[5] = tested on: outside skin surface of the panelist's arm; assay: Skin moisturization by corneometer HM99 (ΔCU=CU2-CU1); format: in vivo, human; conditions: 2% in skin moisture cream
Method: Table 7: Skin moisture cream formulation. The cosmetic products from experimental example 6 were evaluated for the effectiveness of skin moisturization. A group of 5 test panelists participated in this experiment. The panelists were first put in a room with a temperature at 22 °C and relative humidity (RH) 60% for 15 minutes. A probe of the corneometer HM99 of Courage^+Khazaka Electronic Gmbh, Germany was used to measure the skin moisture of the outside skin surface of the panelist's arm to determine the base line as (CU1). A sample of 0.2g from the formulation of experimental example 6 was evenly spread over an area of 25 cm^2 of the skin surface for 2 minutes before the excess formulation sample was removed. After 2 hours the skin moisture was measured again and recorded as (CU2). Before the measurement the panelists were placed in a room with temperature at 22 °C and RH 60% for 15 minutes. The atteration of skin moisture is then calculated as ΔCU=CU2-CU1.

[6] = tested on: inside skin surface of a test panelist's arm; assay: Water retention on skin after skin vital moisture cream (capacitance, Skin Analysis SHP88); format: in vivo, human; conditions: 5% in skin vital moisture cream, 22°C and RH 65%
Method: Table 2: Skin vital moisture cream formulation. […] A sample of 0.2g from each of the 5 products was evenly spread over an area of about 25 cm^2 on the inside skin surface of a test panelist's arm. A group of 10 panelists participated in this test. The water retention on the skin surface was measured at 23 °C under an environment of relative humidity of 60%, with a probe of Skin Analysis SHP88 made by Courage ^+Khazaka Electronic Gmbh, Germany. […] Table 3. The change of moisture retention over time after applying vital moisture creams, was expressed in terms of capacitance increase ratio, %, measured at 22°C and RH 65%.

Compound: CC(O)CCO (stereo not drawn) [1,3-BG, 1,3-Butyl Glycol]
Capacitance Increase Ratio, % [1]: 73.2%
Draize Score [2]: 0

Compound: OCC(O)CO [Glycerol]
Difference Corneometry, % (Pig skin [3]; Time 0 hour): 48.. %
Difference Corneometry, % (Pig skin [3]; Time 1 hour): 32%
Difference Corneometry, % (Pig skin [3]; Time 2 hour): 20%
Difference Corneometry, % (Pig skin [3]; Time 4 hour): 17%
Difference Corneometry, % (Pig skin [3]; Time -1 hour): 100%
Trans-Epidermal-Water-Loss (TEWL) (Pig skin [4]; Time 0 hour): 21.0.
Trans-Epidermal-Water-Loss (TEWL) (Pig skin [4]; Time 1 hour): 19.5
Trans-Epidermal-Water-Loss (TEWL) (Pig skin [4]; Time 2 hour): 19.0
Trans-Epidermal-Water-Loss (TEWL) (Pig skin [4]; Time 2 hour, listed as glycerol): 10.0
Trans-Epidermal-Water-Loss (TEWL) (Pig skin [4]; Time 4 hour): 17.5
Trans-Epidermal-Water-Loss (TEWL) (Pig skin [4]; Time -1 hour): 24.7

Inhibition of Tyrosinase Activity, % (tyrosinase): 100.0%
Compound: O=c1cc(CO)occ1O [Kojic Acid]

Compound: C[N+](C)(C)CC(=O)O [Natural Betaine]
Increase in Skin Moisture ΔCU ([5]; after 2 hours, 22 °C, RH 60%): 12.3
Relative ΔCU % ([5]; relative to 5% Glycerol = 100): 164%

Compound: CC(O)CO (stereo not drawn) [Propylene Glycol]
Capacitance Increase Ratio, % ([6]; Time 0 min): 0%
Capacitance Increase Ratio, % ([6]; Time 5 min): 105%
Capacitance Increase Ratio, % ([6]; Time 10 min): 57%
Capacitance Increase Ratio, % ([6]; Time 20 min): 51%
Capacitance Increase Ratio, % ([6]; Time 40 min): 40%
Capacitance Increase Ratio, % ([6]; Time 80 min): 38%
Capacitance Increase Ratio, % ([6]; Time 120 min): 36%

Inhibition of Tyrosinase Activity, % (tyrosinase): 99.4%
Compound: O=C1O[C@H]([C@@H](O)CO)C(O)=C1O [Vitamin C]
